Laboratory results published in patent US8435980B2 (AbbVie Inc., priority 2009, dated 2013).

What follows are molecules tested against T1, Cdc7 (BEV coexpressed huCDC7/DBF4) (Homo sapiens, UniProt O00311) (assay: Cdc7 enzyme inhibition assay ([33P]ATP, biotinylated peptide substrate, FlashPlate)). Conditions: Table 3; enzyme inhibition data (Ki).
T1 construct: made in house; host or cells: BEV (baculovirus expression vector) co-expression; insect cells are implied but no cell line is named
Assay type: biochemical
Experimental: Cdc7 (BEV coexpressed huCDC7/DBF4) is prepared internally. Cdc7 assays are conducted as follows with final concentrations as listed. […] Reactions are quenched after 1 hr by the addition of 90 μL stop buffer (50 mM EDTA, 2M NaCl). […] (Ki) for exemplary compounds.

T1 sequence (O00311 whole entry): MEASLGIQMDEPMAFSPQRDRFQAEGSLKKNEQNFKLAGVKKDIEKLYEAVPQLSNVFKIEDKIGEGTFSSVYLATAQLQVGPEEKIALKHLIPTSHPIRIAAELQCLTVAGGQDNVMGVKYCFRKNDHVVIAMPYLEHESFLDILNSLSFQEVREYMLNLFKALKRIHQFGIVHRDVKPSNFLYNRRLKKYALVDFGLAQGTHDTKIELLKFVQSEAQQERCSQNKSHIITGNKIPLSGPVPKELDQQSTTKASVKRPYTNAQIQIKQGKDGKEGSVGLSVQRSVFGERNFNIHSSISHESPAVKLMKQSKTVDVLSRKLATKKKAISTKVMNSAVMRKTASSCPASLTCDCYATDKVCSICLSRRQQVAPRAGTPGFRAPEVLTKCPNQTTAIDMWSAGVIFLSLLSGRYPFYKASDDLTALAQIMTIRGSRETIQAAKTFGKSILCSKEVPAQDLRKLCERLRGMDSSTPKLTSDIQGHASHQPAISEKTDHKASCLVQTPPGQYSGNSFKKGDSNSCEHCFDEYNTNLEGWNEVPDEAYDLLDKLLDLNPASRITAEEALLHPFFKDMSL
T1 sequence (Q9UBU7 whole entry partner): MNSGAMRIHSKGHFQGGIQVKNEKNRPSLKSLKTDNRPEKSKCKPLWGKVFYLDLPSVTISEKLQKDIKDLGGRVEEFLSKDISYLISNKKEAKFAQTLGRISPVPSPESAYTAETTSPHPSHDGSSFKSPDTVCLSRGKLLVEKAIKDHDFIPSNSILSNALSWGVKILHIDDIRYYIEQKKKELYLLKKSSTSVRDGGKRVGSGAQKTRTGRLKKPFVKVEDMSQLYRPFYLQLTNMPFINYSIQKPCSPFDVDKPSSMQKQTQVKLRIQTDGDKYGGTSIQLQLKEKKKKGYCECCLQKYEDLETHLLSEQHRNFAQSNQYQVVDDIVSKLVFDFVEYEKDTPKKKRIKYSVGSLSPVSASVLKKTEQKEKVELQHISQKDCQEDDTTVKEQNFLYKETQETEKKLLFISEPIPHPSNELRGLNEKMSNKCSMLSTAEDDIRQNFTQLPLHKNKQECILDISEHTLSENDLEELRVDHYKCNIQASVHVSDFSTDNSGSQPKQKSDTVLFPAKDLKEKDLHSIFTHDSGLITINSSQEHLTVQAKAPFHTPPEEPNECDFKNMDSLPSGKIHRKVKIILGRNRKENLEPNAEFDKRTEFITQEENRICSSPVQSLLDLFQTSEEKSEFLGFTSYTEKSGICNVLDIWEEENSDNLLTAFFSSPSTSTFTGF

Ki, < 10 nM:
Clc1cc(-c2c[nH]c3ncccc23)cc(Nc2ccc3c(c2)OCCO3)n1 [Example 436, 6-chloro-N-(2,3-dihydro-1,4-benzodioxin-6-yl)-4-(1H-pyrrolo[2,3-b]pyridin-3-yl)pyridin-2-amine]
Clc1cc(-c2c[nH]c3ncccc23)cc(Nc2ccc(N3CCOCC3)cc2)n1 [Example 438, 6-chloro-N-[4-(morpholin-4-yl)phenyl]-4-(1H-pyrrolo[2,3-b]pyridin-3-yl)pyridin-2-amine]
Clc1cc(-c2c[nH]c3ncccc23)cc(Nc2cccc3c2CCCC3)n1 [Example 439, 6-chloro-4-(1H-pyrrolo[2,3-b]pyridin-3-yl)-N-(5,6,7,8-tetrahydronaphthalen-1-yl)pyridin-2-amine]
CC(C)(C)c1ccc(Nc2cc(-c3c[nH]c4ncccc34)cc(Cl)n2)cc1 [Example 440, N-(4-tert-butylphenyl)-6-chloro-4-(1H-pyrrolo[2,3-b]pyridin-3-yl)pyridin-2-amine]
Clc1cc(-c2c[nH]c3ncccc23)cc(Nc2cccc3c2CCC3)n1 [Example 441, 6-chloro-N-(2,3-dihydro-1H-inden-4-yl)-4-(1H-pyrrolo[2,3-b]pyridin-3-yl)pyridin-2-amine]
Clc1cc(-c2c[nH]c3ncccc23)cc(Nc2ccc3ncccc3c2)n1 [Example 442, N-[6-chloro-4-(1H-pyrrolo[2,3-b]pyridin-3-yl)pyridin-2-yl]quinolin-6-amine]
CN1CCN(c2ccc(Nc3cc(-c4c[nH]c5ncccc45)cc(Cl)n3)cc2)CC1 [Example 443, 6-chloro-N-[4-(4-methylpiperazin-1-yl)phenyl]-4-(1H-pyrrolo[2,3-b]pyridin-3-yl)pyridin-2-amine]
O=S1(=O)CCN(c2ccc(Nc3cc(-c4c[nH]c5ncccc45)cc(Cl)n3)cc2)CC1 [Example 444, 6-chloro-N-[4-(1,1-dioxidothiomorpholin-4-yl)phenyl]-4-(1H-pyrrolo[2,3-b]pyridin-3-yl)pyridin-2-amine]
COc1cnc2[nH]cc(-c3cc(Cl)nc(N[C@H]4CC[C@H](NC(=O)CN[C@H]5CC[C@H](O)CC5)CC4)c3)c2c1 [Example 445, N-(trans-4-{[6-chloro-4-(5-methoxy-1H-pyrrolo[2,3-b]pyridin-3-yl)pyridin-2-yl]amino}cyclohexyl)-N~2~-(trans-4-hydroxycyclohexyl)glycinamide]
COc1cnc2[nH]cc(-c3cc(Cl)nc(N[C@H]4CC[C@H](NC(=O)CNC(C)C)CC4)c3)c2c1 [Example 446, N-(trans-4-{[6-chloro-4-(5-methoxy-1H-pyrrolo[2,3-b]pyridin-3-yl)pyridin-2-yl]amino}cyclohexyl)-N~2~-propan-2-ylglycinamide]
COc1cnc2[nH]cc(-c3cc(Cl)nc(NC4CCC(CC5CCC(NS(=O)(=O)c6c(C)noc6C)CC5)CC4)c3)c2c1 (centres unmarked) [Example 447, N-{4-[(4-{[6-chloro-4-(5-methoxy-1H-pyrrolo[2,3-b]pyridin-3-yl)pyridin-2-yl]amino}cyclohexyl)methyl]cyclohexyl}-3,5-dimethyl-1,2-oxazole-4-sulfonamide]
COc1cnc2[nH]cc(-c3cc(Cl)nc(NC4CCCC(NC(=O)CN(C)C)C4)c3)c2c1 (centres unmarked) [Example 448, N-(3-{[6-chloro-4-(5-methoxy-1H-pyrrolo[2,3-b]pyridin-3-yl)pyridin-2-yl]amino}cyclohexyl)-N~2~,N~2~-dimethylglycinamide]
Clc1cc(-c2c[nH]c3ncccc23)cc(Nc2ccc(N3CCN(Cc4ccccn4)CC3)cc2)n1 [Example 449, 6-chloro-N-{4-[4-(pyridin-2-ylmethyl)piperazin-1-yl]phenyl}-4-(1H-pyrrolo[2,3-b]pyridin-3-yl)pyridin-2-amine]
Clc1cc(-c2c[nH]c3ncccc23)cc(Nc2ccc(N3CCN(CC4CCCCC4)CC3)cc2)n1 [Example 450, 6-chloro-N-{4-[4-(cyclohexylmethyl)piperazin-1-yl]phenyl}-4-(1H-pyrrolo[2,3-b]pyridin-3-yl)pyridin-2-amine]
CC(C)CN1CCN(c2ccc(Nc3cc(-c4c[nH]c5ncccc45)cc(Cl)n3)cc2)CC1 [Example 451, 6-chloro-N-{4-[4-(2-methylpropyl)piperazin-1-yl]phenyl}-4-(1H-pyrrolo[2,3-b]pyridin-3-yl)pyridin-2-amine]
Nc1ccc(-c2cnc3[nH]cc(-c4cc(Cl)nc(N[C@H]5CC[C@H](NS(=O)(=O)C6CC6)CC5)c4)c3c2)cn1 [Example 452, N-[trans-4-({4-[5-(6-aminopyridin-3-yl)-1H-pyrrolo[2,3-b]pyridin-3-yl]-6-chloropyridin-2-yl}amino)cyclohexyl]cyclopropanesulfonamide]
O=S(=O)(N[C@H]1CC[C@H](Nc2cc(-c3c[nH]c4ncc(-c5cccnc5)cc34)cc(Cl)n2)CC1)C1CC1 [Example 453, N-[trans-4-({6-chloro-4-[5-(pyridin-3-yl)-1H-pyrrolo[2,3-b]pyridin-3-yl]pyridin-2-yl}amino)cyclohexyl]cyclopropanesulfonamide]
NS(=O)(=O)c1cccc(-c2cnc3[nH]cc(-c4cc(Cl)nc(N[C@H]5CC[C@H](NS(=O)(=O)C6CC6)CC5)c4)c3c2)c1 [Example 454, 3-{3-[2-chloro-6-({trans-4-[(cyclopropylsulfonyl)amino]cyclohexyl}amino)pyridin-4-yl]-1H-pyrrolo[2,3-b]pyridin-5-yl}benzenesulfonamide]
O=S(=O)(N[C@H]1CC[C@H](Nc2cc(-c3c[nH]c4ncc(-c5cncnc5)cc34)cc(Cl)n2)CC1)C1CC1 [Example 455, N-[trans-4-({6-chloro-4-[5-(pyrimidin-5-yl)-1H-pyrrolo[2,3-b]pyridin-3-yl]pyridin-2-yl}amino)cyclohexyl] cyclopropanesulfonamide]
C[C@@H](Nc1nc(Cl)cc(-c2c[nH]c3ncccc23)n1)c1ccccc1 [Example 456, 4-chloro-N-[(1R)-1-phenylethyl]-6-(1H-pyrrolo[2,3-b]pyridin-3-yl)pyrimidin-2-amine]
Oc1cccc(CNc2nc(Cl)cc(-c3c[nH]c4ncccc34)n2)c1 [Example 457, 3-({[4-chloro-6-(1H-pyrrolo[2,3-b]pyridin-3-yl)pyrimidin-2-yl]amino}methyl)phenol]
Oc1ccc(CNc2nc(Cl)cc(-c3c[nH]c4ncccc34)n2)cc1 [Example 458, 4-({[4-chloro-6-(1H-pyrrolo[2,3-b]pyridin-3-yl)pyrimidin-2-yl]amino}methyl)phenol]
CN(C)C1CCC(Nc2nc(Cl)cc(-c3c[nH]c4ncccc34)n2)CC1 (centres unmarked) [Example 459, N′-[4-chloro-6-(1H-pyrrolo[2,3-b]pyridin-3-yl)pyrimidin-2-yl]-N,N-dimethylcyclohexane-1,4-diamine]
NC1CCC(CC2CCC(Nc3nc(Cl)cc(-c4c[nH]c5ncccc45)n3)CC2)CC1 (centres unmarked) [Example 465, N-{4-[(4-aminocyclohexyl)methyl]cyclohexyl}-4-chloro-6-(1H-pyrrolo[2,3-b]pyridin-3-yl)pyrimidin-2-amine]
NCCNc1nc(Cl)cc(-c2c[nH]c3ncccc23)n1 [Example 466, N-[4-chloro-6-(1H-pyrrolo[2,3-b]pyridin-3-yl)pyrimidin-2-yl]ethane-1,2-diamine]
OCCNc1nc(Cl)cc(-c2c[nH]c3ncccc23)n1 [Example 467, 2-{[4-chloro-6-(1H-pyrrolo[2,3-b]pyridin-3-yl)pyrimidin-2-yl]amino}ethanol]
NCCOCCOCCNc1nc(Cl)cc(-c2c[nH]c3ncccc23)n1 [Example 468, N-{2-[2-(2-aminoethoxy)ethoxy]ethyl}-4-chloro-6-(1H-pyrrolo[2,3-b]pyridin-3-yl)pyrimidin-2-amine]
O=C(NC1CCCC1)N[C@H]1CC[C@H](Nc2nc(Cl)cc(-c3c[nH]c4ncccc34)n2)CC1 [Example 470, 1-(trans-4-{[4-chloro-6-(1H-pyrrolo[2,3-b]pyridin-3-yl)pyrimidin-2-yl]amino}cyclohexyl)-3-cyclopentylurea]
CN(C)c1ccc(NC(=O)N[C@H]2CC[C@H](Nc3nc(Cl)cc(-c4c[nH]c5ncccc45)n3)CC2)cc1 [Example 471, 1-(trans-4-{[4-chloro-6-(1H-pyrrolo[2,3-b]pyridin-3-yl)pyrimidin-2-yl]amino}cyclohexyl)-3-[4-(dimethylamino)phenyl]urea]
O=C(CN1C(=O)c2ccccc2C1=O)N[C@H]1CC[C@H](Nc2nc(Cl)cc(-c3c[nH]c4ncccc34)n2)CC1 [Example 472, N-(trans-4-{[4-chloro-6-(1H-pyrrolo[2,3-b]pyridin-3-yl)pyrimidin-2-yl]amino}cyclohexyl)-2-(1,3-dioxo-1,3-dihydro-2H-isoindol-2-yl)acetamide]
O=C1NCCN1C(=O)N[C@H]1CC[C@H](Nc2nc(Cl)cc(-c3c[nH]c4ncccc34)n2)CC1 [Example 473, N-(trans-4-{[4-chloro-6-(1H-pyrrolo[2,3-b]pyridin-3-yl)pyrimidin-2-yl]amino}cyclohexyl)-2-oxoimidazolidine-1-carboxamide]
OCCOCCNc1nc(Cl)cc(-c2c[nH]c3ncccc23)n1 [Example 474, 2-(2-{[4-chloro-6-(1H-pyrrolo[2,3-b]pyridin-3-yl)pyrimidin-2-yl]amino}ethoxy)ethanol]
